# pIC50: −log10 of the molar value. Counter-ions that a name gives are not always drawn.
# Legend:
# Target C = test: RT-qPCR canonical junction panel assay, Target C mRNA; assay type: cell-based; details: Table 4, read-out: Target C IC50 (decrease in CJ mRNA levels)
# How it was run: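 IC50 is the concentration giving 50% CJ decrease, from a 4-parameter logistic fit of percent response; response derived from ΔΔCt against housekeeper and DMSO over a fixed ΔCt window, with canonical exon-junction qPCR in compound-treated K562 or A673 cells.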
# K562 cells = test: Cell Titer Glo 2.0 cell viability (toxicity) assay, K562; details: 500 cells/well, 72 hours
# SMN2 mRNA = test: RT-qPCR splicing assay, SMN2 mRNA; assay type: cell-based, human; details: Homo sapiens, canonical junction qPCR panel, Table 4; read-out: SMN2 IC50 (decrease in CJ mRNA levels)
# How it was run: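 Canonical and alternative-exon junction isoforms were quantified by RT-qPCR in cell lysates, with ΔCt against a housekeeper (GAPDH/GUSB/PPIA), then ΔΔCt vs DMSO, converted to 2^(−ΔΔCt) and percent response. K562 or A673 cells were exposed for 24 h to 11 concentrations (3-fold, top final 10 uM).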
pIC50 (Target C),pIC50 (SMN2 mRNA),Compound,"Effect of Exemplary Compounds on Cell Viability, K562 (K562 cells)"
6.00 to 7.00,,"C[C@H]1CN(c2cc(F)c3nc(-c4cc(F)c5nn(C)cc5c4)ccc3c2)C[C@H](C)N1 (single isomer, unassigned) [Compound 760]",B (B represents 100-1000 nM)
6.00 to 7.00,,"C[C@H]1CN(c2cc(F)c3nc(-c4cc5cn(C)nc5cc4O)ccc3c2)C[C@H](C)N1 (single isomer, unassigned) [Compound 770]",B (B represents 100-1000 nM)
5.00 to 6.00,,"Cc1cn2nc(-c3ccc4cc(N5C[C@H](C)N[C@@H](C)C5)cc(F)c4n3)cc(C)c2n1 (single isomer, unassigned) [Compound 799]",B (B represents 100-1000 nM)
6.00 to 7.00,,"Cc1c(O)c(-c2ccc3cc(N4C[C@H](C)N[C@@H](C)C4)cc(F)c3n2)cc2cn(C)nc12 (single isomer, unassigned) [Compound 800, 2,2,2-trifluoroacetate]",A (A represents <100 nM)
< 5.00,,"Cc1nc(-c2cc3cn(C)nc3cc2O)nc2ccc(N3C[C@H](C)N[C@@H](C)C3)cc12 (single isomer, unassigned) [Compound 806]",B (B represents 100-1000 nM)
< 5.00,,"Cc1nc(-c2cc3cn(C)nc3c(C)c2O)nc2ccc(N3C[C@H](C)N[C@@H](C)C3)cc12 (single isomer, unassigned) [Compound 807]",B (B represents 100-1000 nM)
5.00 to 6.00,6.00 to 7.00,Cn1cc2cc(-c3cc4ccc(C5CCNCC5)nc4cn3)c(O)cc2n1 [Compound 104],C (C represents 1000-9999 nM)
6.00 to 7.00,> 7.00,Cn1cc2cc(-c3ccc4nc(N5CC[C@H](NC6CCC6)C5)ccc4n3)c(O)cc2n1 [Compound 156],B (B represents 100-1000 nM)
6.00 to 7.00,> 7.00,CC(C)N[C@H]1CCN(c2ccc3nc(-c4cc5cn(C)nc5cc4O)ccc3n2)C1 [Compound 171],B (B represents 100-1000 nM)
> 7.00,> 7.00,Cc1cn2nc(-c3ccc4nc(N5CCC(NC(C)(C)C)C5)ccc4n3)cc(C)c2n1 (stereo not drawn) [Compound 186],B (B represents 100-1000 nM)
6.00 to 7.00,> 7.00,Cn1cc2cc(-c3ccc4nc(N5CC[C@H](NCC6CC6)C5)ccc4n3)c(O)cc2n1 [Compound 194],B (B represents 100-1000 nM)
5.00 to 6.00,> 7.00,"CN(C)C1CCN(c2ccc3nc(-c4cc5cn(C)nc5c(F)c4O)ncc3c2)CC1 [Compound 757, 5-{6-[4-(dimethylamino)piperidin-1-yl]quinazolin-2-yl}-7-fluoro-2-methylindazol-6-ol]",A (A represents <100 nM)
5.00 to 6.00,> 7.00,"C[C@@H]1CN(c2cc(F)c3nc(-c4cc(F)c5nn(C)cc5c4)ccc3c2)C[C@H](C)N1 [Compound 758, 6-[(3R,5S)-3,5-dimethylpiperazin-1-yl]-8-fluoro-2-(7-fluoro-2-methylindazol-5-yl)quinoline]",B (B represents 100-1000 nM)
5.00 to 6.00,> 7.00,"C[C@@H]1CN(c2cc(F)c3nc(-c4cc5cn(C)nc5c(F)c4O)ccc3c2)C[C@H](C)N1 [Compound 763, 5-{6-[(3R,5S)-3,5-dimethylpiperazin-1-yl]-8-fluoroquinolin-2-yl}-7-fluoro-2-methylindazol-6-ol hydrochloride]",A (A represents <100 nM)
5.00 to 6.00,> 7.00,"C[C@@H]1CN(c2cc(F)c3nc(-c4cc5cn(C)nc5cc4O)ccc3c2)C[C@H](C)N1 [Compound 768, 5-{6-[(3R,5S)-3,5-dimethylpiperazin-1-yl]-8-fluoroquinolin-2-yl}-2-methylindazol-6-ol hydrochloride]",C (C represents 1000-9999 nM)
5.00 to 6.00,> 7.00,"Cc1cn2cc(-c3ncc4cc(N5C[C@@H](C)N[C@@H](C)C5)ccc4n3)cc(F)c2n1 [Compound 773, 6-[(3R,5S)-3,5-dimethylpiperazin-1-yl]-2-{8-fluoro-2-methylimidazo[1,2-a]pyridin-6-yl}quinazoline]",B (B represents 100-1000 nM)
5.00 to 6.00,> 7.00,"Cc1cn2cc(-c3nc(C(=O)NC4CCC4)c4cc(N5C[C@@H](C)N[C@@H](C)C5)ccc4n3)cc(F)c2n1 [Compound 779, N-cyclobutyl-6-[(3R,5S)-3,5-dimethylpiperazin-1-yl]-2-{8-fluoro-2-methylimidazo[1,2-a]pyridin-6-yl}quinazoline-4-carboxamide]",A (A represents <100 nM)
< 5.00,,Cc1c(O)c(-c2nc(C(N)=O)c3cc(N4C[C@H](C)N[C@@H](C)C4)ccc3n2)cc2cn(C)nc12 [Compound 796],A (A represents <100 nM)
< 5.00,,C[C@H]1CN(c2ccc3nc(-c4cc5cn(C)nc5cc4O)nc(C(N)=O)c3c2)C[C@H](C)N1 [Compound 797],A (A represents <100 nM)
6.00 to 7.00,> 7.00,"Cc1cn2cc(-c3ncc4cc(N5C[C@H](C)N[C@@H](C)C5)ccc4n3)cc(F)c2n1 [Compound 803, 6-[(3S,5S)-3,5-dimethylpiperazin-1-yl]-2-{8-fluoro-2-methylimidazo[1,2-a]pyridin-6-yl}quinazoline]",A (A represents <100 nM)
6.00 to 7.00,,"Cc1c(O)c(-c2ccc3cc(N4CCNC5(CC5)C4)cc(F)c3n2)cc2cn(C)nc12 [Compound 805, 5-(6-{4,7-diazaspiro[2.5]octan-7-yl}-8-fluoroquinolin-2-yl)-2,7-dimethylindazol-6-ol]",B (B represents 100-1000 nM)
